# Source: patent publication US9896487B2, “Amyloidosis-inhibiting polypeptides and their use” (UNIVERSITY OF WASHINGTON THROUGH ITS CENTER FOR …, priority 2013, dated 2018)
# Entries after “also recorded” stand apart in the source; their conditions may differ. Like-named read-outs stand apart in the source and are kept apart here. [ ]: non-standard residue; d: D form.
# Assays:
# [1] = system: Aβ, IAPP and TTR amyloidosis / toxic oligomer; assay: Inhibitory activity summary: inhibition of aggregation and/or binding of toxic oligomer; format: biochemical; settings: for inhibition of aggregation (FIG. 6): Aβ, IAPP, TTR panels; for inhibitor quality compared with ldas90: FIG. 6 / FIG. 7
# Procedure: In addition, FIG. 5 contains ‘control’ designs aimed at reverse engineering the α1 design, which is presented in more detail in Example 3. […] These designs are both linear and cyclic peptides designed to be hairpins.
# The “control” designs were tested as general inhibitors against the Amyloid β 1-42 peptide (Aβ) (panel A), the islet amylin polypeptide (IAPP, or amylin, which is implicated in type 2 diabetes) (panel B), and transthyretin (TTR) (panel C) amyloidosis (FIG. 6). […] As described in Example 1, a Thioflavin T (ThT) fluorescence assay was used to monitor Aβ and IAPP aggregation. A Congo Red dye-binding assay was used to monitor TTR fibrillization. For inhibition against Aβ, peptides were co-incubated at 4-fold excess of Aβ at RT in neutral pH buffer containing ThT. […] For inhibition against IAPP, peptides were co-incubated at 8-fold excess of IAPP at 37° C. in neutral pH buffer containing 20 μM ThT. For inhibition against TTR, peptides were co-incubated at 10-fold excess of monomeric TTR.
# The data in FIG. 6 were normalized to ThT fluorescence of the negative (uninhibited) control (black squares). Inhibition traces are ordered vertically according to sequence identity to α1 (see Table 1). Sigmoidal fits to data are included. Controls are identical throughout a single panel, and traces for inhibition samples are colored while the uninhibited aggregation profiles are in black.
# toxic oligomer = assay: Binding of toxic oligomer by peptide immobilized to agarose beads (Examples 2 and 3)
# Procedure: Peptide designs were immobilized to the Pierce Amino Link resin following the manufacturer's instructions. Peptides were immobilized in a volume of 200 μL of coupling buffer (100 mM sodium phosphate, 150 mM sodium chloride, pH 7.2) and 2 μL cyanoborohydride solution (5 M sodium cyanoborohydride in 1 M NaOH) at a concentration of 358 μM overnight at 4° C. Any residual active sites were blocked with 400 μL quenching buffer (1 M tris hydrochloride, pH 7.4) and 4 μL cyanoborohydride solution for 4 hours at 25° C. Binding experiments were performed from 200 μL amyloid solution (5 μM Aβ or 20 μM TTR (monomer) diluted to the desired concentration in coupling buffer), which was allowed to bind to the peptide-bound agarose beads for 2 h at 25° C. The solution was then collected by centrifugation (flow through, FT). The beads were resuspended in 300 μL coupling buffer, vortexed to obtain an uniform slurry, and the solution was again collected by centrifugation (wash 1, W1). The wash step was performed an additional five times (W2-W6). One final wash step was performed but after resuspending the resin, the solution was allowed to sit for 5 minutes before centrifugation (W7). The resin was next resuspended in 100 μL 2M guanidine hydrochloride, incubated for 5 minutes at room temperature, then collected as before. This was performed twice (E1-E2). The resin was washed again with 300 μL coupling buffer (W8) followed by two elution steps with 6M guanidine hydrochloride (E3-E4). One final wash step was performed with 300 μL coupling buffer (W9). All collected eluents were analyzed by applying triplicate 1 μL spots to nitrocellulose, and then performing standard dot blot analysis as described by Kayed et al. (9) with an anti-TTR (sc-13098, Santa Cruz Biotechnology, Santa Cruz, Calif.) or anti-Aβ (ab39377; Abeam Inc, Cambridge, Mass.) primary antibody diluted 1:1.000 in 5% or 10% nonfat milk, respectively.
# Three α-sheet designs are addressed in Example 1, but many more have been evaluated using these same assays and structural methods. FIG. 5 contains a list of other designed α-sheet peptides, both linear and cyclic (specifically peptides #3-5 and #8-9), as well as other control, non-α-sheet designs (peptides #17-18, 20). In addition, FIG. 5 contains ‘control’ designs aimed at reverse engineering the α1 design, which is presented in more detail in Example 3. […] Random primary sequences of amino acids are active in the polypeptides of the invention; these same primary sequences are not active if the polypeptide is provided in an entirely L-amino acid peptide or if the L/D amino acids are randomly distributed within the polypeptide such that they are not alternating (i.e. if they are not polypeptides according to the invention). […] They also all inhibit aggregation and/or bind the toxic oligomer. Some of the polypeptides are insoluble and the solution assay can't be performed, but they do bind the targeted toxic oligomer when they are immobilized to agarose beads to promote solubilization. • Thus, this provides further evidence that the primary amino acid sequence per se is not determining structure and activity, the L/D patterning is. However, the sequence modulates the activity and solubility properties. • Both cyclic and linear designs with different sequences form α-sheet polypeptides, inhibit aggregation, and bind the toxic oligomer. […] (See peptides #1 and #7.) Note, however, that the charges can modulate the level of activity. • Next, consider all 14 designed peptides with the L/D turn template, they are all active. Some have issues with solubility but they all form α-sheet and are active amyloid inhibitors in solution and/or binding of the toxic oligomer. These designs are both linear and cyclic peptides designed to be hairpins. The sequence identity relative to ldas90 (peptide #1) ranges from 9-91% across these 14 designs with an average of 43%. […]
# transthyretin (TTR) = target: T1, transthyretin (TTR) (Homo sapiens, UniProt P02766); assay: TTR fibrillization assay (Congo red binding); format: biochemical; settings: peptide without regard to TTR; prevents solution TTR assay
# T1 construct: purchased Lee Biosolutions, St. Louis Mo; 496-11
# Procedure: Aliqouts of transthyretin (TTR) (496-11; Lee Biosolutions, St. Louis Mo.) were made from a 1 mg/mL solution 20 mM ammonium carbonate, pH 8. Aliquots were lyophilized and stored at −18° C. Prior to use, TTR was dissolved to 80 μM (monomer) in acetate buffer (50 mM potassium acetate, 100 mM potassium chloride pH 4.5) and sonicated for 10 minutes. The stock solution was centrifuged before use. Peptide designs were added to stock TTR to a final TTR concentration of 40 μM (monomer) in acetate buffer (pH 4.5) in 500 μL microcentrifuge tubes, which were incubated at 37° C. Periodically, samples were collected from the TTR:peptide mixture by briefly centrifuging, and then carefully pipetting the solution up and down prior to withdrawing a 10 μL sample and diluting it in 190 μL of 10 μM Congo red in an individual well of a 96-well assay plate. Each measurement was performed in triplicate. Absorbance measurements were taken at 477 and 540 nm. Relative Congo red binding was determined using the method of Klunk et al. using the relationship: rCb=(Abs540/25,295)−(Abs477/46,306) (40). All datapoints were normalized to the value recorded for TTR alone pH 4.5 at 48 hrs.
# The “control” designs were tested as general inhibitors against the Amyloid β 1-42 peptide (Aβ) (panel A), the islet amylin polypeptide (IAPP, or amylin, which is implicated in type 2 diabetes) (panel B), and transthyretin (TTR) (panel C) amyloidosis (FIG. 6). […] As described in Example 1, a Thioflavin T (ThT) fluorescence assay was used to monitor Aβ and IAPP aggregation. A Congo Red dye-binding assay was used to monitor TTR fibrillization. For inhibition against Aβ, peptides were co-incubated at 4-fold excess of Aβ at RT in neutral pH buffer containing ThT. Note that the results for α1 differ somewhat from what are included in Example 1 because the assay conditions were altered slightly to slow the process down to favor oligomerization of Aβ (rather than fibril elongation) by lowering the temperature to 25° C. […] For inhibition against IAPP, peptides were co-incubated at 8-fold excess of IAPP at 37° C. in neutral pH buffer containing 20 μM ThT. For inhibition against TTR, peptides were co-incubated at 10-fold excess of monomeric TTR.
substance,measurement,setting,value
Ac-AQQiEcItNVWDKEItMyFnVSE-NH2 (Ac-AQQ[dI]E[dC]L[dT]NVWDKEL[dT]M[dY]F[dN]VSE-NH2; not fully specified) [peptide #11],Inhibits Aggregation and/or binds oligomer?,[1],yes
same,inhibition of aggregation (FIG. 6),[1],weak
same,Inhibits Aggregation and/or binds oligomer?,[1]; listed as Control 3,active
same,binds toxic oligomer when immobilized,toxic oligomer,do bind toxic oligomer
same,Congo red binding by the peptide itself,transthyretin (TTR),bind Congo Red
Ac-RGEaWmYiKNNLSETmMsNmWGR-NH2 [peptide #12],Inhibits Aggregation and/or binds oligomer?,[1],yes
same,inhibition of aggregation (FIG. 6),[1],inhibits aggregation
same,Inhibits Aggregation and/or binds oligomer?,[1]; listed as Control6,active
same,binds toxic oligomer when immobilized,toxic oligomer; listed as Control 6,do bind toxic oligomer
same,binds toxic oligomer when immobilized,toxic oligomer; listed as Control6,binds the toxic oligomer
same,Congo red binding by the peptide itself,transthyretin (TTR),bind Congo Red
Ac-MNWESkGEwIRMRYGtmLSNGnM-NH2 (Ac-MNWES[dK]GE[dW]LRMRYG[dT][dM]LSNG[dN]M-NH2; SMILES CSCC[C@H](NC(=O)[C@@H](CC(N)=O)NC(=O)CNC(=O)[C@H](CC(N)=O)NC(=O)[C@H](CO)NC(=O)[C@H](CC(C)C)NC(=O)[C@@H](CCSC)NC(=O)[C@H](NC(=O)CNC(=O)[C@H](Cc1ccc(O)cc1)NC(=O)[C@H](CCCNC(=N)N)NC(=O)[C@H](CCSC)NC(=O)[C@H](CCCNC(=N)N)NC(=O)[C@H](CC(C)C)NC(=O)[C@@H](Cc1c[nH]c2ccccc12)NC(=O)[C@H](CCC(=O)O)NC(=O)CNC(=O)[C@@H](CCCCN)NC(=O)[C@H](CO)NC(=O)[C@H](CCC(=O)O)NC(=O)[C@H](Cc1c[nH]c2ccccc12)NC(=O)[C@H](CC(N)=O)NC(=O)[C@H](CCSC)NC(C)=O)[C@H](C)O)C(N)=O) [peptide #19],Inhibits Aggregation and/or binds oligomer?,[1],no
same,Inhibits Aggregation and/or binds oligomer?,[1]; listed as Control2,inactive
same,binds toxic oligomer when immobilized,toxic oligomer,does not
same,Congo red binding by the peptide itself,transthyretin (TTR),bind Congo Red
Ac-RGNwNeSkMNEYSGWmLmLtMGR-NH2 (Ac-RGN[dW]N[dE]S[dK]MNEYSGW[dM]L[dM]L[dT]MGR-NH2; SMILES CSCC[C@H](NC(=O)[C@@H](CCCCN)NC(=O)[C@H](CO)NC(=O)[C@@H](CCC(=O)O)NC(=O)[C@H](CC(N)=O)NC(=O)[C@@H](Cc1c[nH]c2ccccc12)NC(=O)[C@H](CC(N)=O)NC(=O)CNC(=O)[C@H](CCCNC(=N)N)NC(C)=O)C(=O)N[C@@H](CC(N)=O)C(=O)N[C@@H](CCC(=O)O)C(=O)N[C@@H](Cc1ccc(O)cc1)C(=O)N[C@@H](CO)C(=O)NCC(=O)N[C@@H](Cc1c[nH]c2ccccc12)C(=O)N[C@H](CCSC)C(=O)N[C@@H](CC(C)C)C(=O)N[C@H](CCSC)C(=O)N[C@@H](CC(C)C)C(=O)N[C@@H](C(=O)N[C@@H](CCSC)C(=O)NCC(=O)N[C@@H](CCCNC(=N)N)C(N)=O)[C@H](C)O) [peptide #6],Inhibits Aggregation and/or binds oligomer?,[1],yes
same,inhibition of aggregation (FIG. 6),[1],good inhibitor
same,inhibitor quality compared with ldas90,[1],as good as ldas90 (peptide #1) with capped ends; also recorded: better than ldas90 with charged ends (peptide #7)
same,inhibitor quality compared with ldas90,[1]; listed as Control5,as active
same,Inhibits Aggregation and/or binds oligomer?,[1]; listed as Control5,active
same,binds toxic oligomer when immobilized,toxic oligomer,binds the toxic oligomer
Ac-WRPwAiDgMNTBKQRkAsVyLQP-NH2 [peptide #13],Inhibits Aggregation and/or binds oligomer?,[1],yes
same,Inhibits Aggregation and/or binds oligomer?,[1]; listed as Control 4,active
same,binds toxic oligomer when immobilized,toxic oligomer,do bind toxic oligomer
same,Congo red binding by the peptide itself,transthyretin (TTR),bind Congo Red
